Reference: ChEMBL document CHEMBL1955803, “Preclinical in vivo evaluation of efficacy, pharmacokinetics, and pharmacodynamics of a novel MEK1/2 kinase inhibitor RO5068760 in multiple tumor models” (Mol Cancer Ther, 2010)
pIC50: −log10 of the molar value. Active and inactive are the calls of the source. No cut-off for these calls is given here.

Legend:
[1] = Antitumor activity against human LOX cells expressing B-Raf V600E mutant xenografted in nude mouse assessed as tumor growth inhibition at 25 mg/kg, po bid; type: functional; conditions: read-out: GI
[2] = Antitumor activity against human LOX cells expressing B-Raf V600E mutant xenografted in nude mouse assessed as tumor growth inhibition at 12.5 mg/kg, po bid; type: functional; conditions: read-out: GI
HT-29 [3] = test: Antitumor activity against human HT-29 cells expressing B-Raf V600E mutant xenografted in nude mouse assessed as tumor growth inhibition at 50 mg/kg, po bid; type: functional; conditions: read-out: GI
[4] = Antitumor activity against human LOX cells expressing B-Raf V600E mutant xenografted in nude mouse assessed as tumor growth inhibition at 6.25 mg/kg, po bid; type: functional; conditions: read-out: GI
[5] = Plasma concentration in human LOX cells expressing B-Raf V600E mutant xenografted nude mouse at 100 mg/kg, po after 4 hrs; type: ADME, organism-based; design: dose 100 mg/kg, route oral
Mus musculus [6] = test: Average drug concentration in human HT-29 cells expressing B-Raf V600E mutant xenografted nude mouse plasma at 100 mg/kg, po bid; type: ADME, organism-based; design: dose 100 mg/kg, route oral; conditions: in vivo
Mus musculus [7] = test: Toxicity in human HT-29 cells expressing B-Raf V600E mutant xenografted nude mouse assessed as gross signs of adverse effect at 500 mg/kg, po administered weekly once for 3 weeks; type: organism-based; design: dose 500 mg/kg, route oral; conditions: in vivo, 504 h
[8] = target: Dual specificity mitogen-activated protein kinase kinase; MEK1/2 (Homo sapiens) (UniProt P36507+Q02750); conditions: LOX, 2 to 10 uM
Description: Inhibition of MEK1/2 in human LOX cells assessed as inhibition of ERK1/2 phosphorylation at 2 to 10 uM by Western blot analysis

[9] = Cmax in human LOX cells expressing B-Raf V600E mutant xenografted nude mouse at 6.25 mg/kg, po bid; type: ADME, organism-based; design: dose 6.25 mg/kg, route oral; conditions: in vivo
[10] = Cmax in human MIAPaCa2 cells expressing K-Ras G12C mutant xenografted nude mouse at 200 mg/kg, po qd; type: ADME, organism-based, MIA PaCa-2; design: dose 200 mg/kg, route oral; conditions: in vivo
MIA PaCa-2 [11] = test: Growth inhibition of human MIAPaCa2 cells expressing K-Ras […] mutant by MTT assay; type: functional, cell-based
HT-29 [12] = test: Antitumor activity against human HT-29 cells expressing B-Raf V600E mutant xenografted in nude mouse assessed as tumor growth inhibition at 25 mg/kg, po bid; type: functional; conditions: read-out: GI
[13] = AUC (0 to 12 hrs) in human LOX cells expressing B-Raf V600E mutant xenografted nude mouse at 6.25 mg/kg, po bid; type: ADME, organism-based; design: time < 12 hr, dose 6.25 mg/kg, route oral; conditions: in vivo
[14] = AUC (0 to 12 hrs) in human LOX cells expressing B-Raf V600E mutant xenografted nude mouse at 25 mg/kg, po bid; type: ADME, organism-based; design: time < 12 hr, dose 25 mg/kg, route oral; conditions: in vivo
[15] = target: Dual specificity mitogen-activated protein kinase kinase 1 (Homo sapiens, UniProt Q02750); test: Inhibition of MEK1 in human LOX cells assessed as inhibition of ERK phosphorylation by Western blot analysis; type: cell-based
MIA PaCa-2 [16] = test: Antitumor activity against human MIAPaCa2 cells expressing K-Ras G12C mutant xenografted in nude mouse assessed as tumor growth inhibition at 25 mg/kg, po bid; type: functional; conditions: read-out: GI
MIA PaCa-2 [17] = test: Antitumor activity against human MIAPaCa2 cells expressing K-Ras G12C mutant xenografted in nude mouse assessed as tumor growth inhibition at 50 mg/kg, po bid; type: functional; conditions: read-out: GI
[18] = Drug level in human LOX cells expressing B-Raf V600E mutant xenografted nude mouse tumor at 100 mg/kg, po after 1 hr; type: ADME, organism-based, Neoplasm; design: dose 100 mg/kg, route oral; conditions: read-out: Drug uptake
[19] = Plasma concentration in human HT-29 cells expressing B-Raf V600E mutant xenografted nude mouse at 100 mg/kg, po after 4 hrs; type: ADME, organism-based; design: dose 100 mg/kg, route oral
[20] = Antitumor activity against human LOX cells expressing B-Raf V600E mutant xenografted in nude mouse assessed as tumor growth inhibition at 500 mg/kg, po administered weekly once; type: functional; conditions: read-out: GI
Mus musculus [21] = test: Inhibition of MEK-mediated ERK phosphorylation in tumor of human HT-29 cells expressing B-Raf V600E mutant xenografted nude mouse at 100 mg/kg, po after 2 hrs by Western blot analysis relative to control; type: functional; conditions: HT-29, 2 h
[22] = Plasma concentration in human HT-29 cells expressing B-Raf V600E mutant xenografted nude mouse at 100 mg/kg, po after 2 hrs; type: ADME, organism-based; design: dose 100 mg/kg, route oral
[23] = Drug level in human HT-29 cells expressing B-Raf V600E mutant xenografted nude mouse tumor at 50 mg/kg, po after 4 hrs; type: ADME, organism-based, Neoplasm; design: dose 50 mg/kg, route oral; conditions: read-out: Drug uptake
Mus musculus [24] = test: Inhibition of MEK-mediated ERK phosphorylation in po dosed human LOX cells expressing B-Raf V600E mutant xenografted nude mouse tumor by Western blot analysis; type: functional, organism-based
Mus musculus [25] = test: Toxicity in human H460 cells expressing K-Ras Q61H mutant xenografted nude mouse assessed as gross signs of adverse effect at 25 to 200 mg/kg, po bid for 3 weeks; type: organism-based; design: dose 25-200 mg/kg, route oral; conditions: in vivo, 504 h
Mus musculus [26] = test: Average drug concentration in human MIAPaCa2 cells expressing K-Ras G12C mutant xenografted nude mouse plasma at 25 mg/kg, po bid; type: ADME, organism-based, MIA PaCa-2; design: dose 25 mg/kg, route oral; conditions: in vivo
[27] = AUC (0 to 24 hrs) in human MIAPaCa2 cells expressing K-Ras G12C mutant xenografted nude mouse at 200 mg/kg, po qd; type: ADME, organism-based, MIA PaCa-2; design: time < 24 hr, dose 200 mg/kg, route oral; conditions: in vivo
MIA PaCa-2 [28] = test: Antitumor activity against human MIAPaCa2 cells expressing K-Ras G12C mutant xenografted in nude mouse assessed as tumor growth inhibition at 100 mg/kg, po bid; type: functional; conditions: read-out: GI
[29] = Drug level in human LOX cells expressing B-Raf V600E mutant xenografted nude mouse tumor at 100 mg/kg, po after 12 hrs; type: ADME, organism-based, Neoplasm; design: dose 100 mg/kg, route oral; conditions: read-out: Drug uptake
Mus musculus [30] = test: Inhibition of MEK-mediated ERK phosphorylation in tumor of human HT-29 cells expressing B-Raf V600E mutant xenografted nude mouse at 100 mg/kg, po after 12 hrs by Western blot analysis relative to control; type: functional; conditions: HT-29, 12 h
[31] = Plasma concentration in human HT-29 cells expressing B-Raf V600E mutant xenografted nude mouse at 50 mg/kg, po after 12 hrs; type: ADME, organism-based; design: dose 50 mg/kg, route oral
Mus musculus [32] = test: Average drug concentration in human MIAPaCa2 cells expressing K-Ras G12C mutant xenografted nude mouse plasma at 50 mg/kg, po bid; type: ADME, organism-based, MIA PaCa-2; design: dose 50 mg/kg, route oral; conditions: in vivo
NCI-H460 [33] = test: Antitumor activity against human H460 cells expressing K-Ras Q61H mutant xenografted in nude mouse assessed as tumor growth inhibition at 25 mg/kg, po bid; type: functional; conditions: read-out: GI
[34] = AUC (0 to 12 hrs) in human HT-29 cells expressing B-Raf V600E mutant xenografted nude mouse at 50 mg/kg, po bid; type: ADME, organism-based; design: time < 12 hr, dose 50 mg/kg, route oral; conditions: in vivo
NCI-H460 [35] = test: Antitumor activity against human H460 cells expressing K-Ras Q61H mutant xenografted in nude mouse assessed as tumor growth inhibition at 50 mg/kg, po bid; type: functional; conditions: read-out: GI
MIA PaCa-2 [36] = test: Antitumor activity against human MIAPaCa2 cells expressing K-Ras G12C mutant xenografted in nude mouse assessed as tumor growth inhibition at 500 mg/kg, po administered weekly once; type: functional; conditions: read-out: GI
MIA PaCa-2 [37] = test: Antitumor activity against human MIAPaCa2 cells expressing K-Ras G12C mutant xenografted in nude mouse assessed as tumor growth inhibition at 200 mg/kg, po bid; type: functional; conditions: read-out: GI
[38] = AUC (0 to 12 hrs) in human HT-29 cells expressing B-Raf V600E mutant xenografted nude mouse at 25 mg/kg, po bid; type: ADME, organism-based; design: time < 12 hr, dose 25 mg/kg, route oral; conditions: in vivo

Sequence of Dual specificity mitogen-activated protein kinase kinase; MEK1/2 (Homo sapiens) (P36507 whole entry, looked up): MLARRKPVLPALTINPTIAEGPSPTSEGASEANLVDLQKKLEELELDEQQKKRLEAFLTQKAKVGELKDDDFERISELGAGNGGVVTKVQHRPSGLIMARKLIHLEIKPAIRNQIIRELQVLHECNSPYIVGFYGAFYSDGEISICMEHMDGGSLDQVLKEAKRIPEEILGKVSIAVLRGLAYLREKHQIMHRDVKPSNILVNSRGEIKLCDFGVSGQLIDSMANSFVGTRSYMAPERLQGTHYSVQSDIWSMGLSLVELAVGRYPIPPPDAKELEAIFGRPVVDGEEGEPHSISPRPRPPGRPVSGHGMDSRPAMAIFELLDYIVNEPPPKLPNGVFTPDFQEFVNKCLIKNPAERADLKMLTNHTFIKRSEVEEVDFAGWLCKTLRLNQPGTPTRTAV
Sequence of Dual specificity mitogen-activated protein kinase kinase; MEK1/2 (Homo sapiens) (Q02750 whole entry, looked up): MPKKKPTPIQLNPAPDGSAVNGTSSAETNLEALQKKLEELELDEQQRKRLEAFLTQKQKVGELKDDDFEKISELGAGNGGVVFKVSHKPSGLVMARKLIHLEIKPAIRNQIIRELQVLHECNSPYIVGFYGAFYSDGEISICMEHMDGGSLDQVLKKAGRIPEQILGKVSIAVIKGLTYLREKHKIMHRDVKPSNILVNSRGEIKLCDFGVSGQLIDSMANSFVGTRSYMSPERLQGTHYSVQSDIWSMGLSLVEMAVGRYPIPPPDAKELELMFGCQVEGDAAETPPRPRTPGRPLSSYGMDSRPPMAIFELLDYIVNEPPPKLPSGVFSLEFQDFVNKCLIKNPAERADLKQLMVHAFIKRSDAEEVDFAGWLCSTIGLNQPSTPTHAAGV
Sequence of Dual specificity mitogen-activated protein kinase kinase 1 (Q02750 whole entry): as the sequence (Q02750 whole entry, looked up) above

concentration at 4 h [5]: 4140 ng/mL
Cave (Mus musculus [6]): 1530 ng/mL
inhibition [8]: Active
Cmax [9]: 750 ng/mL
Cmax [10]: 15500 ng/mL
pIC50 (MIA PaCa-2 [11]): 5.90
IC90 (MIA PaCa-2 [11]): 5.11 µM
AUC at 12 h [13]: 3970 ng·h/mL
AUC at 12 h [14]: 10000 ng·h/mL
pIC50 [15]: 7.66
concentration at 1 h [18]: 1030 ng/g
concentration at 4 h [19]: 6030 ng/mL
concentration at 2 h [22]: 9360 ng/mL
concentration at 4 h [23]: 1490 ng/g
EC50 (Mus musculus [24]): 928 ng/g
Cave (Mus musculus [26]): 1058 ng/mL
AUC at 24 h [27]: 66200 ng·h/mL
concentration at 12 h [29]: 318 ng/g
concentration at 12 h [31]: 61 ng/mL
Cave (Mus musculus [32]): 1567 ng/mL
AUC at 12 h [34]: 7310 ng·h/mL
AUC at 12 h [38]: 3780 ng·h/mL
Structure (SMILES): C[C@@H](c1ccccc1)[C@@H](C(=O)Nc1ccc(I)cc1F)N1C(=O)N[C@H](c2ccc(OC[C@H](O)CO)cc2)C1=O
inhibition in vivo at 25 mg/kg [1]: > 100%
inhibition in vivo at 12.5 mg/kg [2]: 99%
inhibition in vivo at 50 mg/kg (HT-29 [3]): 75%
inhibition in vivo at 6.25 mg/kg [4]: 61%
Activity (Mus musculus [7]): Non-toxic
inhibition in vivo at 25 mg/kg (HT-29 [12]): 65%
inhibition in vivo at 25 mg/kg (MIA PaCa-2 [16]): 71%
inhibition in vivo at 50 mg/kg (MIA PaCa-2 [17]): 84%
inhibition in vivo at 500 mg/kg [20]: > 100%
inhibition in vivo at 100 mg/kg (Mus musculus [21]): 76%
Activity (Mus musculus [25]): Non-toxic
inhibition in vivo at 100 mg/kg (MIA PaCa-2 [28]): > 100%
inhibition in vivo at 100 mg/kg (Mus musculus [30]): 0%
inhibition in vivo at 25 mg/kg (NCI-H460 [33]): 64%
inhibition in vivo at 50 mg/kg (NCI-H460 [35]): 83%
inhibition in vivo at 500 mg/kg (MIA PaCa-2 [36]): 42%
inhibition in vivo at 200 mg/kg (MIA PaCa-2 [37]): 97%
